SMILES strings stand for the structures. The source made the active and inactive calls.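 Rule for the calls: active = compounds giving half or more protection of infected cells from virus-caused growth loss, again on retest; inactive = the rest.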 A value given as a limit tells only on which side of the number the result lay.

We go through 53 compounds from PubChem BioAssay AID179 (DTP/NCI, 2004).

This test relates to CEM cells HIV-1 protection, formazan growth assay. The experiment in a line: NCI AIDS Antiviral Assay. To be noted: for IC50: measured here: growth of uninfected CEM cells. In a few lines: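 Category rules: moderately active means at least 50% protection on retest, and confirmed active means 100% protection reproducibly. The underlying data came from a formazan growth assay in HIV-1-infected CEM cells.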

For the compound `c1ccc(-c2nnc(SCc3nc4ccccc4[nH]3)o2)cc1`, the EC50 – broadly, the concentration giving half of the maximal effect – was greater than 200 µM and the IC50 (in general, the concentration needed to halve the response being measured) worked out at 31.6 µM.
On to `COC(=O)C(CC(C)=O)CS(=O)(=O)CC(=O)C(=O)Nc1cccc([N+](=O)[O-])c1` (stereo unspecified), for which the EC50 was greater than 162 µM and the IC50 was greater than 162 µM.
In the case of `CCNC(=O)C1CCCN1C(=O)C(CCCN=C(N)N)NC(=O)C(CC(C)C)NC(=O)C(Cc1c[nH]c2ccccc12)NC(=O)C(Cc1ccc(O)cc1)NC(=O)C(CO)NC(=O)C(Cc1c[nH]c2ccccc12)NC(=O)C(Cc1cnc[nH]1)NC(=O)C1CCC(=O)N1` (stereo unspecified), the EC50 is greater than 178 µM and the IC50 is greater than 178 µM.
`CCOC(=O)C1C(c2ccco2)C2(C#N)C(=N)OC1(C)C2(C#N)C#N` (stereo unspecified): the EC50 was greater than 200 µM and the IC50 stood at 64.6 µM.
The like results for `CC(=O)OCCOCn1c2c(c(=S)[nH]c1=O)CCC2` were, in that order, greater than 200 µM and greater than 200 µM.
The like results for `Cc1cc(C)nc(NS(=O)(=O)c2ccc(N)cc2)n1` were, in that order, greater than 200 µM and greater than 200 µM.
The like results for `CC(=O)OCC1C(OC(C)=O)CC2CCC1N2C#N` (stereo unspecified) were, in that order, greater than 200 µM and greater than 200 µM.
For `CC(=O)Nc1ccc(-c2nnc(SCC(=O)Nc3ccccc3[N+](=O)[O-])o2)cc1`, the EC50 was greater than 24 µM and the IC50 was greater than 24 µM.
In the case of `COc1cc(C2C3=C(COC3=O)OC(C)(C)Oc3cc4c(cc32)OCO4)cc(OC)c1O` (stereo unspecified), the EC50 is greater than 2 µM and the IC50 stood at 0.575 µM.
With `CC(=N/NC(=S)N1CCCCCC1)/C(C)=N\NC(=S)N1CCCCCC1`, the EC50 was greater than 100 µM and the IC50 was 8.71 µM.
For the compound `O=C(CCCC[n+]1ccccc1)Sc1ccccc1C(=O)Nc1ccc(S(=O)(=O)c2ccc(NS(=O)(=O)Cc3ccccc3[N+](=O)[O-])cc2)cc1`, the EC50 is 9.55 µM and the IC50 was greater than 200 µM.
The like results for `CCCCCCCCCCCCC(Br)C(=O)OCC1OC(n2cc(C)c(=O)[nH]c2=O)CC1N=[N+]=[N-]` (stereo unspecified) were, in that order, 0.0977 µM and 3.39 µM.
The like results for `CC1CN(c2cc3c(cc2F)c(=O)c(C(=O)O)cn3-c2ccc(F)cn2)CC(C)N1` (stereo unspecified) were, in that order, greater than 200 µM and greater than 200 µM.
The like results for `CC(=O)OC1CC2(C)OC(Cc3ccccc32)O1` (stereo unspecified) were, in that order, greater than 200 µM and greater than 200 µM.
`CC(C)=CCC/C(C)=C/CC/C(C)=C/C1CCC(=O)C1(C)C` (stereo unspecified): the EC50 is greater than 85.1 µM and the IC50 was determined as 41.7 µM.
For `C[Si](C)(C)OC1(C#N)C2C3CC4C2C(=O)C2C4C3C21` (stereo unspecified), the outcome was inactive.
`CCCCC(N)CSSCC(N)CCCC` (stereo unspecified): the EC50 was greater than 741 µM and the IC50 stood at 21.4 µM.
Turning to `C/C=C1\CN(C)C2Cc3c([nH]c4ccccc34)C(c3cc4c5c([nH]c4cc3OC)C3(C(=O)OC)CC4CC(CC)C3N(CC5)C4)CC1C2C(=O)OC` (stereo unspecified), the outcome was inactive.
Regarding `Cc1c(C(c2[nH]c3ccccc3c2C)c2[nH]c3ccccc3c2C)[nH]c2ccccc12`, the EC50 was 0.0631 µM and the IC50 was found to be 13.5 µM.
The like results for `N=C(N)n1[nH]c2c(c1=O)CCCC2` were, in that order, greater than 200 µM and greater than 200 µM.
In the case of `Nc1c(S(=O)(=O)c2ccccc2)c2nc3ccccc3nc2n2c1nc1ccccc12`, the EC50 is greater than 8.91 µM and the IC50 was greater than 8.91 µM.
`NC(=O)N/N=C(\CC1OC(=O)c2ccccc21)c1ccc([N+](=O)[O-])cc1` (stereo unspecified): the outcome was inactive.
Take `CCn1c(C)nc([N+](=O)[O-])c1Sc1ncc[nH]1`: the EC50 is greater than 977 µM and the IC50 amounted to 17.8 µM.
As for `CCOC(=O)c1cc2c(cn1)[nH]c1cccc(N)c12`, the EC50 was greater than 263 µM and the IC50 was greater than 263 µM.
As to `O=C([CH-]C(=O)c1ccccc1)c1ccccc1.O=C([CH-]C(=O)c1ccccc1)c1ccccc1.[OH-].[OH-].[Ti+4]`, the EC50 was greater than 25.7 µM and the IC50 is greater than 25.7 µM.
As to `O=C1NC(=O)C(=Cc2ccc(F)cc2)C(=O)N1`, the EC50 was greater than 112 µM and the IC50 is greater than 112 µM.
Take `O=S1(=O)c2ccccc2S(=O)(=O)c2ccccc21`: the EC50 is 87.1 µM and the concentration for half-maximal inhibition (IC50) was greater than 200 µM.
As to `COc1cc2c(cc1OC)C1(c3ccccc3)ON=C(c3ccccc3)N1CS2` (stereo unspecified), the EC50 is greater than 9.33 µM and the IC50 was greater than 9.33 µM.
Turning to `O=C1NN2CCN=C2c2cccnc21`, the EC50 is greater than 1320 µM and the IC50 was greater than 1320 µM.
On to `CC1=Nc2ccccc2S/C1=C(/C)NNS(=O)(=O)c1ccc(C)cc1`, for which the EC50 is greater than 53.7 µM and the IC50 is greater than 53.7 µM.
For the compound `Cc1cn(CC2=NCC(C)(C)N2)c(=O)[nH]c1=O`, the EC50 was greater than 200 µM and the IC50 is 93.3 µM.
In the case of `NC(=S)Nc1nnc(-c2ccc(-c3nnc(NC(N)=S)o3)cc2)o1`, the result was inactive.
The same measure, in the same setting: the entry for `COc1ccc(OC)c2c(=O)c3ccccc3[nH]c12` is “inactive”.
Take `Nc1ccc(C(=O)NN2C(=O)C(Cl)C2c2ccccc2O)cc1` (stereo unspecified): the EC50 is greater than 200 µM and the IC50 came out at 29.5 µM.
On to `OC(CCNC12CC3CC(CC(C3)C1)C2)c1ccccc1` (stereo unspecified), for which the result was inactive.
For `O=C1CC[C@H](O)Cc2ccc(O)c(c2)-c2cc(ccc2O)CC1O` (stereo partly specified), the EC50 is greater than 759 µM and the IC50 amounted to 724 µM.
The like results for `O=C(O)c1ccccc1C(=O)NC(Cc1cnc[nH]1)C(=O)O` (stereo unspecified) were, in that order, greater than 200 µM and greater than 200 µM.
Consider `Cc1cc(C(=O)CCCCOc2ccc(C3=NCCO3)cc2)c(C)n1C`, for which the result was inactive.
Consider `O=C1C2CCC3C1C(C(=O)O)C(C(=O)O)C23` (stereo unspecified), for which the EC50 was greater than 200 µM and the IC50 was greater than 200 µM.
On to `C[Si](C)(C)O/C=C1\CCCCC1=O`, for which the EC50 was greater than 200 µM and the IC50 was greater than 200 µM.
Regarding `O=C(NNC(=O)c1ccccc1O)c1ccccc1O`, the EC50 was greater than 0.2 µM and the IC50 was determined as 0.102 µM.
The like results for `Cc1nonc1NC(=O)OCc1ccccc1` were, in that order, greater than 112 µM and greater than 112 µM.
Consider `N#CC(C#N)=Cc1ccc(Oc2ccccc2)cc1`, for which the EC50 was greater than 21.4 µM and the IC50 was found to be 16.6 µM.
The like results for `CC(C)C1CC=NN1C(=O)OC(C)(C)C` (stereo unspecified) were, in that order, greater than 200 µM and greater than 200 µM.
As to `CCOC(=O)NP(=O)(NC(=O)OCC)NC(=O)OCC`, the result was inactive.
In the case of `O=C(c1ccccc1)c1nc2ccc(Cl)cc2c2c1Cc1ccccc1-2`, the EC50 is greater than 2.95 µM and the IC50 was greater than 2.95 µM.
As to `COC(=O)c1c(-c2ccccc2)c(C(O)c2ccccc2)n2ccccc12` (stereo unspecified), the EC50 was greater than 26.3 µM and the IC50 was 14.1 µM.
With `CN(C)c1ccc(/C=C(\NC(=O)c2ccccc2)C(=O)NC(CC(=O)O)C(=O)O)cc1` (stereo unspecified), the result was inactive.
For the compound `Cc1cn([C@H]2C[C@@H]3[C@@H](COC(CCc4ccccc4)N3O)O2)c(=O)[nH]c1=O` (stereo partly specified), the EC50 is 95.5 µM and the IC50 was found to be 151 µM.
The like results for `CCOC(=O)C1(C)CCCC1N` (stereo unspecified) were, in that order, greater than 200 µM and greater than 200 µM.
The like results for `O=C1OC(c2cccc3ccccc23)c2ccccc21` (stereo unspecified) were, in that order, greater than 501 µM and 26.3 µM.
The like results for `O=c1[nH]c2cc([N+](=O)[O-])ccc2nc1/C(=N/Nc1ccccc1)C(O)c1ccc(Cl)cc1Cl` (stereo unspecified) were, in that order, greater than 269 µM and 148 µM.
`NC(=N\N=C/c1ccc(Cl)cc1Cl)/C(N)=N\N=C/c1ccc(Cl)cc1Cl`: the outcome was inactive.
